Experimental data: patent US11944702B2, “Skin care composition and method of making a skin care composition” (L'OREAL, priority 2017, dated 2024)

Assay: Stability of mixed skin care composition (base + booster compositions)
Format: physicochemical
Conditions: combination results in incompatible pH and separation of phases
Description: Referring again to FIG. 2, after the ingredient is determined, a compatibility profile is determined corresponding to the previously selected ingredients (step 207). The compatibility profile includes an inclusion or exclusion of additional ingredients to the formulation. That is, the compatibility profile provides acceptable combinations of booster composition and base composition combinations made with the previously selected ingredients that forms stable and efficacious skin care compositions. […] “Stable”, “Stability” and grammatical variations thereof, indicate a macroscopic homogeneous substance that doesn't have variation in texture or varying phases physically noticeable. In addition, microscopically the emulsion of the composition has the appearance of being homogeneous with the droplets and no dynamic changes in the microscope image. […] In addition, compatibility may include ingredients that retain efficacy of individual ingredients when combined with the other ingredients remain present in the formula over time periods and exposures to varying temperature.
Examples and comparative examples below are provided by the cosmetic dispending system as shown and described above. TABLE 3 includes the composition of Base B, the hydroalcoholic base, according to an embodiment of the disclosure.

- compatibility with hydroalcoholic base: not compatible
SMILES: CC1=C(/C=C/C(C)=C/C=C/C(C)=C/CO)C(C)(C)CCC1 [retinol]
